Laboratory results reported in patent publication US20120315624A1, “Using LNA Flow-Fish to Quantitatively Monitor Viral Infections in Infected Cells and Test the Efficacy of Antiviral Medications” (priority 2011, published 2012).

Key:
Sindbis virus (SV) [1] = test: LNA flow-FISH of Sindbis virus RNA in infected cells with and without antiviral; format: cell-based
Protocol: Cells were infected with the virus of interest and harvested at various timepoints during infection. Cells were harvested and fixed with 4% paraformaldehye and 5% acetic acid in phosphate-buffered saline (PBS) for 10 min at room temperature. After fixation, the cells were washed twice in PBS and stored at 4° C. until use.
A control oligonucleotide and a specific biotinylated LNA-modified DNA oligonucleotide were used for the quantification of SV RNA. The sequences of the probes along with other relevant details are found in reference 30. The control probe is a nonspecific 22-mer oligonucleotide (nonspecific LNA) lacking complementarity to cellular nucleic acids and having a Tm of 75° C. The specific LNA probe (SV LNA), complementary to the SV RNA portion encoding the structural proteins, was also a 22-mer with a Tm of 76° C. Each had approximately one-third locked nucleic acid content.
When ready to detect the virus present in the cells at various timepoints, the cells were permeabilized with 0.1 μg/mL Proteinase K in TE buffer (pH 8.0) for 30 min at 37° C. The cells were then washed twice with PBS. A pre-hybridization step was then carried out under the same conditions as the hybridization, but without LNA probe. After pre-hybridization, a solution of 0.1× saline-sodium citrate (SSC) buffer was added followed by centrifugation and removal of the supernatant. […]
To use the LNA flow-FISH method to study the efficacy of antiviral medication, before, during, or after infection, cells were treated with an antiviral compound and left for various amounts of time. […] The change in viral nucleic acid with antiviral treatment can be quantified by taking the mean fluorescence intensity (MFI) or by examining the percent of infected cells compared to uninfected cells.
(§1) As an example, Sindbis virus (SV) was used along with Ribavirin (Rbv), an antiviral, to test the LNA flow-FISH method for studying the action and efficacy of antiviral medications. […] Samples infected with SV with and without Rbv were analyzed by LNA flow-FISH.

Sindbis virus (SV) [2] = test: EGFP signal of the recombinant Sindbis virus measured by flow cytometry; format: cell-based; conditions: SV-infected cells, 6-h incubation with Rbv, FIG. 4
Protocol: Sindbis virus (SV) was used to test the LNA flow-FISH method for the quantitative monitoring of a viral infection in cells. After infecting cells with SV, cells were collected at different timepoints and their mean fluorescence intensity (MFI) was measured using flow cytometry. The LNA flow-FISH technique was directly compared with a genetic recombination method of measuring viral infection—this was possible because the SV strain has an enhanced green fluorescent protein (eGFP) construct incorporated into the viral RNA. […] In addition, lysed cells were used to compare the LNA flow-FISH results with QRT-PCR.
To use the LNA flow-FISH method to study the efficacy of antiviral medication, before, during, or after infection, cells were treated with an antiviral compound and left for various amounts of time. The LNA flow-FISH method is then used as described above. The change in viral nucleic acid with antiviral treatment can be quantified by taking the mean fluorescence intensity (MFI) or by examining the percent of infected cells compared to uninfected cells.
as §1

[3] = tested on: many DNA and RNA viruses including Sindbis; conditions: general statement on the nucleoside analog; cited from earlier work

NC(=O)c1ncn([C@@H]2O[C@H](CO)[C@@H](O)[C@H]2O)n1 [Rbv, Ribavirin]
viral replication (SV RNA by LNA flow-FISH) (Sindbis virus (SV) [1]; 6-h incubation with Rbv, FIG. 4): reduction in viral replication
mean fluorescence intensity (MFI) of samples with Rbv versus samples without antiviral (Sindbis virus (SV) [1]; 6 h, SV LNA flow-FISH and EGFP, FIG. 4): drastically lower
uninfected cells in the population when Rbv present (Sindbis virus (SV) [1]; 6 h with Rbv): no uninfected cells were observed
viral expression (EGFP) (Sindbis virus (SV) [2]): reduction
replication of viruses [3]: inhibits the replication of many DNA and RNA viruses including Sindbis
